US11345694B2, “Antibacterial compounds” (DISCUVA LTD., priority 2017, dated 2022)
Converted amounts (≈) assume the structure as drawn.

How the values were obtained:
[1] = test system: K. pneumoniae H154020667 (KP6); assay: MIC broth microdilution; assay type: cell-based, Klebsiella pneumoniae; conditions: for MIC: Klebsiella pneumoniae
Method in brief: (§1)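 Growth inhibition scored after 20-24 h at 37 °C in ambient air, in cation-adjusted Müller-Hinton broth; MIC is the lowest inhibitory concentration. Compounds serially diluted two-fold over 0.39-200 μM final (DMSO up to 2%), per CLSI microdilution guidelines.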

[2] = test system: K. pneumoniae NCTC 13438 (KP1); assay: MIC broth microdilution; assay type: cell-based, Klebsiella pneumoniae; conditions: for MIC: Klebsiella pneumoniae, NCTC13438
Method in brief: as §1

[3] = test system: K. pneumoniae H154300688 (KP9); assay: MIC broth microdilution; assay type: cell-based, Klebsiella pneumoniae; conditions: for MIC: Klebsiella pneumoniae
Method in brief: as §1

[4] = test system: K. pneumoniae ATCC 700603 (KP3); assay: MIC broth microdilution; assay type: cell-based, Klebsiella pneumoniae; conditions: for MIC: Klebsiella pneumoniae, ATCC700603
Method in brief: as §1

[5] = test system: K. pneumoniae H151440671 (KP10); assay: MIC broth microdilution; assay type: cell-based, Klebsiella pneumoniae; conditions: for MIC: Klebsiella pneumoniae
Method in brief: as §1

[6] = test system: K. pneumoniae H154680676 (KP5); assay: MIC broth microdilution; assay type: cell-based, Klebsiella pneumoniae; conditions: for MIC: Klebsiella pneumoniae
Method in brief: as §1

[7] = test system: K. pneumoniae H154640784 (KP7); assay: MIC broth microdilution; assay type: cell-based, Klebsiella pneumoniae; conditions: for MIC: Klebsiella pneumoniae
Method in brief: as §1

[8] = test system: K. pneumoniae H154600588 (KP8); assay: MIC broth microdilution; assay type: cell-based, Klebsiella pneumoniae; conditions: for MIC: Klebsiella pneumoniae
Method in brief: as §1

[9] = test system: E. coli NCTC 13441 (UPEC); assay: MIC broth microdilution; assay type: cell-based, Escherichia coli; conditions: for MIC: Escherichia coli, NCTC13441
Method in brief: (§2)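 Planktonic cells were tested by CLSI broth microdilution in cation-adjusted Müller-Hinton broth, with compounds two-fold serially diluted to final concentrations of 0.39-200 μM (DMSO at most 2% final). After 20-24 h at 37° C in ambient air, MIC was taken as the lowest concentration inhibiting growth.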

[10] = test system: Klebsiella pneumoniae ATCC 10031 (KP2); assay: MIC broth microdilution; assay type: cell-based; conditions: for MIC: ATCC10031
Method in brief: as §1

[11] = test system: Staphylococcus aureus ATCC 35556 (SA); assay: MIC broth microdilution; assay type: cell-based; conditions: for MIC: ATCC35556
Method in brief: as §2

[12] = test system: Pseudomonas aeruginosa ATCC 33359 (PA); assay: MIC broth microdilution; assay type: cell-based; conditions: for MIC: ATCC33359
Method in brief: as §2

[13] = test system: Escherichia coli K12 (EC); assay: MIC broth microdilution; assay type: cell-based
Method in brief: as §2

[14] = test system: Acinetobacter baumannii ATCC 17978 (AB); assay: MIC broth microdilution; assay type: cell-based; conditions: for MIC: ATCC17978
Method in brief: as §2

[15] = test system: Enterobacter cloacae DSM 30054 (Ed); assay: MIC broth microdilution; assay type: cell-based; conditions: for MIC: DSM30054
Method in brief: as §1

[16] = test system: Salmonella typhimurium XNAA5 (St); assay: MIC broth microdilution; assay type: cell-based; conditions: for MIC: Salmonella enterica
Method in brief: as §2

[17] = test system: Serratia marcescens SL1344 (Sm); assay: MIC broth microdilution; assay type: cell-based
Method in brief: as §2

[18] = test system: human hepatocarcinoma cell line ATCC HB-8065 (HepG2); assay: Human cell viability (CellTiter-Glo); assay type: cell-based; conditions: Homo sapiens; HepG2 cells, 24 h incubation, CellTiter-Glo luminescence, 0.2-100 μM; read-out: IC50 values against the HepG2 cell line
Method in brief: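 Cytotoxicity was read as CellTiter-Glo luminescence after 24 h compound exposure at 37° C., 5% CO2. Final concentrations spanned 0.2-100 μM in two-fold steps, in 1% FBS MEM with 1% DMSO, on cells plated a day earlier at 20,000/well. IC50 came from 4-parameter logistic regression.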

[19] = test system: Klebsiella pneumoniae ATCC 51504 (KP4); assay: MIC broth microdilution; assay type: cell-based; conditions: ATCC51504
Method in brief: as §2

SMILES | MIC [2] [µM] | IC50 [18] [µM] | MIC [9] [µM] | MIC [10] [µM] | MIC [11] [µM] | MIC [12] [µM] | MIC [13] [µM] | MIC [14] [µM] | MIC [1] [µM] | MIC [3] [µM] | MIC [4] [µM] | MIC [5] [µM] | MIC [6] [µM] | MIC [7] [µM] | MIC [8] [µM] | MIC [19] [µM] | also measured
C[C@H]1c2cccc(O)c2C(=O)C2=C(O)[C@]3(O)C(=O)C(C(N)=O)=C(O)[C@@H](N(C)C)[C@@H]3[C@@H](O)[C@@H]21 [DOX] |  |  |  |  |  |  |  |  |  |  |  |  |  |  |  |  | MIC KP6 [1]: C (a MIC of from 10 to 100 is assigned the letter C); MIC KP1 [2]: C (a MIC of from 10 to 100 is assigned the letter C); MIC KP9 [3]: C (a MIC of from 10 to 100 is assigned the letter C); MIC KP3 [4]: C (a MIC of from 10 to 100 is assigned the letter C); MIC KP10 [5]: B (a MIC of from 1 to 10 is assigned the letter B); MIC KP5 [6]: C (a MIC of from 10 to 100 is assigned the letter C); MIC KP7 [7]: C (a MIC of from 10 to 100 is assigned the letter C); MIC KP8 [8]: C (a MIC of from 10 to 100 is assigned the letter C); MIC UPEC [9]: C (a MIC of from 10 to 100 is assigned the letter C); MIC KP2 [10]: A (an MIC (μM) of less or equal to 1 is assigned the letter A); MIC SA [11]: A (an MIC (μM) of less or equal to 1 is assigned the letter A); MIC PA [12]: C (a MIC of from 10 to 100 is assigned the letter C); MIC EC [13]: B (a MIC of from 1 to 10 is assigned the letter B); MIC AB [14]: A (an MIC (μM) of less or equal to 1 is assigned the letter A); MIC Ecl [15]: B (a MIC of from 1 to 10 is assigned the letter B); MIC St [16]: B (a MIC of from 1 to 10 is assigned the letter B); MIC Sm [17]: B (a MIC of from 1 to 10 is assigned the letter B)
Cc1cc(-c2nc(N)[nH]c2-c2ccc(Cl)cc2)ccn1 [Example 4, 5-(4-Chlorophenyl)-4-(2-methylpyridin-4-yl)-1H-imidazol-2-amine] | 10 to 100 (≈ 2.85 to 28.5 µg/mL) | > 100 | 1 to 10 (≈ 0.285 to 2.85 µg/mL) | ≤ 1 | > 100 | > 100 | ≤ 1 | > 100 |  |  |  |  |  |  |  |  | MIC [15]: 1 to 10 µM (≈ 0.285 to 2.85 µg/mL); MIC [16]: 1 to 10 µM (≈ 0.285 to 2.85 µg/mL); MIC [17]: 10 to 100 µM (≈ 2.85 to 28.5 µg/mL)
COc1ccc(-c2[nH]c(N)nc2-c2ccnc(C)c2)cc1 [Example 21, 5-(4-Methoxyphenyl)-4-(2-methylpyridin-4-yl)-1H-imidazol-2-amine] | 10 to 100 (≈ 2.8 to 28 µg/mL) | > 100 | 1 to 10 (≈ 0.28 to 2.8 µg/mL) | ≤ 1 | > 100 | > 100 | 1 to 10 (≈ 0.28 to 2.8 µg/mL) | > 100 |  |  |  |  |  |  |  |  | MIC [15]: > 100 µM; MIC [16]: > 100 µM; MIC [17]: > 100 µM
COCCN1CCOc2ccc(-c3nc(N)[nH]c3-c3ccnc(C)c3)cc21 [Example 64, 4-(4-(2-Methoxyethyl)-3,4-dihydro-2H-benzo[b][1,4]oxazin-6-yl)-5-(2-methylpyridin-4-yl)-1H-imidazol-2-amine] | 1 to 10 (≈ 0.365 to 3.65 µg/mL) | > 100 | ≤ 1 | ≤ 1 | > 100 | > 100 | 1 to 10 (≈ 0.365 to 3.65 µg/mL) | > 100 | 1 to 10 (≈ 0.365 to 3.65 µg/mL) | 1 to 10 (≈ 0.365 to 3.65 µg/mL) | 1 to 10 (≈ 0.365 to 3.65 µg/mL) | 1 to 10 (≈ 0.365 to 3.65 µg/mL) | 1 to 10 (≈ 0.365 to 3.65 µg/mL) | 1 to 10 (≈ 0.365 to 3.65 µg/mL) | 1 to 10 (≈ 0.365 to 3.65 µg/mL) | 1 to 10 (≈ 0.365 to 3.65 µg/mL) | 
Cc1cc(-c2[nH]c(N)nc2-c2ccc3c(c2)N(C2CC2)CCO3)ccn1 [Example 65, 4-(4-Cyclopropyl-3,4-dihydro-2H-benzo[b][1,4]oxazin-6-yl)-5-(2-methylpyridin-4-yl)-1H-imidazol-2-amine] | 1 to 10 (≈ 0.347 to 3.47 µg/mL) | > 100 | 1 to 10 (≈ 0.347 to 3.47 µg/mL) | ≤ 1 | > 100 | > 100 | ≤ 1 | > 100 | ≤ 1 | ≤ 1 | 1 to 10 (≈ 0.347 to 3.47 µg/mL) | ≤ 1 | ≤ 1 | 1 to 10 (≈ 0.347 to 3.47 µg/mL) | 1 to 10 (≈ 0.347 to 3.47 µg/mL) | ≤ 1 | 
Cc1cc(-c2[nH]c(N)nc2-c2ccc3c(c2)N(CC2CC2)CCO3)ccn1 [Example 92, 4-(4-(Cyclopropyl-methyl)-3,4-dihydro-2H-benzo[b][1,4]oxazin-6-yl)-5-(2-methylpyridin-4-yl)-1H-imidazol-2-amine] | 1 to 10 (≈ 0.361 to 3.61 µg/mL) | 25 to 100 | 1 to 10 (≈ 0.361 to 3.61 µg/mL) | ≤ 1 | > 100 | > 100 | ≤ 1 | > 100 | ≤ 1 | 1 to 10 (≈ 0.361 to 3.61 µg/mL) | 1 to 10 (≈ 0.361 to 3.61 µg/mL) | 1 to 10 (≈ 0.361 to 3.61 µg/mL) | ≤ 1 | 1 to 10 (≈ 0.361 to 3.61 µg/mL) | 1 to 10 (≈ 0.361 to 3.61 µg/mL) | 1 to 10 (≈ 0.361 to 3.61 µg/mL) | 
Cc1cc(-c2[nH]c(N)nc2-c2ccc3c(c2)N(C(C)C)CCO3)ccn1 [Example 93, 4-(4-isopropyl-3,4-dihydro-2H-benzo[b][1,4]oxazin-6-yl)-5-(2-methylpyridin-4-yl)-1H-imidazol-2-amine] | 1 to 10 (≈ 0.349 to 3.49 µg/mL) | 25 to 100 | ≤ 1 | ≤ 1 | > 100 | > 100 | ≤ 1 | > 100 | ≤ 1 | 1 to 10 (≈ 0.349 to 3.49 µg/mL) | 1 to 10 (≈ 0.349 to 3.49 µg/mL) | ≤ 1 | ≤ 1 | 1 to 10 (≈ 0.349 to 3.49 µg/mL) | 1 to 10 (≈ 0.349 to 3.49 µg/mL) | ≤ 1 | 
NC[C@H]1O[C@H](O[C@H]2[C@H](O)[C@@H](O[C@H]3O[C@H](CO)[C@@H](O)[C@H](N)[C@H]3O)[C@H](N)C[C@@H]2N)[C@H](N)C[C@@H]1O [TOB] |  |  |  |  |  |  |  |  |  |  |  |  |  |  |  |  | MIC UPEC [9]: D (a MIC of over 100 is assigned the letter D); MIC SA [11]: B (a MIC of from 1 to 10 is assigned the letter B); MIC PA [12]: B (a MIC of from 1 to 10 is assigned the letter B); MIC EC [13]: B (a MIC of from 1 to 10 is assigned the letter B); MIC AB [14]: B (a MIC of from 1 to 10 is assigned the letter B); MIC Ecl [15]: C (a MIC of from 10 to 100 is assigned the letter C); MIC St [16]: B (a MIC of from 1 to 10 is assigned the letter B); MIC Sm [17]: A (an MIC (μM) of less or equal to 1 is assigned the letter A)
